According to US20220288156A1, “TREATMENT” (QUEEN MARY UNIVERSITY OF LONDON, priority 2019, published 2022):

System: cardiomyocytes
Experiment: Cardiomyocyte size assessment after angiotensin II
Assay type: cell-based, mouse
Conditions: 1 μM angiotensin II vs vehicle
Method: For cardiomyocyte hypertrophy assessment, 1 μM angiotensin II (Alfa Aesar, ThermoFisher Scientific) was added to cardiomyocyte growth media post serum starvation (i.e. 6 days post-culture), and this was refreshed the next day. Images of cardiomyocytes were captured using a bright field microscope at 40× magnification at 0, 24, and 48 hours post-angiotensin II treatment and analysed using ImageJ™ software.

In the case of “angiotensin II (DRVYIHPF; Angiotensin-2; UniProt P01019 25-32, looked up) [AngII, used to mimic the molecular stress of heart failure in cardiomyocytes]”, the cardiomyocyte cell size is reported as “significant increase in cell size”.
